Source: the supplement of paper PMC10307832

Assays:
Assay in all cases: relative viability (nuclei count vs DMSO), 5 days (fraction); higher = more cells survive
Neratinib + Olaparib = compound: CCOc1cc2ncc(C#N)c(Nc3ccc(OCc4ccccn4)c(Cl)c3)c2cc1NC(=O)/C=C/CN(C)C [Neratinib] + O=C(c1cc(Cc2n[nH]c(=O)c3ccccc23)ccc1F)N1CCN(C(=O)C2CC2)CC1 [Olaparib] (partner 8 µM)
How it was run: (§1)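 For relative viability, nuclei counts in treated wells were divided by those in vehicle wells. Lung cancer cell lines had been pin-tool dosed in 1536-well plates the day after seeding and cultured for 5 days, then fixed and stained in one step (final 0.05% Triton X-100, 1% formaldehyde, 1 ug/ml Hoechst) and imaged at 4×. Doses were one drug alone or a fixed anchor-drug dose plus five library-drug doses (not always all listed) in √10 steps, and values are duplicate-plate medians.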

Neratinib + Linsitinib = compound: CCOc1cc2ncc(C#N)c(Nc3ccc(OCc4ccccn4)c(Cl)c3)c2cc1NC(=O)/C=C/CN(C)C [Neratinib] + C[C@]1(O)C[C@@H](c2nc(-c3ccc4ccc(-c5ccccc5)nc4c3)c3c(N)nccn32)C1 [Linsitinib] (partner 1 µM)
How it was run: as §1

Neratinib + Pemetrexed = compound: CCOc1cc2ncc(C#N)c(Nc3ccc(OCc4ccccn4)c(Cl)c3)c2cc1NC(=O)/C=C/CN(C)C [Neratinib] + Nc1nc2[nH]cc(CCc3ccc(C(=O)N[C@@H](CCC(=O)O)C(=O)O)cc3)c2c(=O)[nH]1 [Pemetrexed] (partner 0.2 µM)
How it was run: as §1

Neratinib + Vorinostat = compound: CCOc1cc2ncc(C#N)c(Nc3ccc(OCc4ccccn4)c(Cl)c3)c2cc1NC(=O)/C=C/CN(C)C [Neratinib] + O=C(CCCCCCC(=O)Nc1ccccc1)NO [Vorinostat] (partner 1 µM)
How it was run: as §1

EBC-1
relative viability (Neratinib + Olaparib; first compound 0.01 µM): 0.774
relative viability (Neratinib + Olaparib; first compound 0.03162 µM): 0.668
relative viability (Neratinib + Olaparib; first compound 0.1 µM): 0.669
relative viability (Neratinib + Olaparib; first compound 0.3162 µM): 0.695
relative viability (Neratinib + Olaparib; first compound 1 µM): 0.544
relative viability (Neratinib + Linsitinib; first compound 0.01 µM): 0.932
relative viability (Neratinib + Linsitinib; first compound 0.03162 µM): 1.08
relative viability (Neratinib + Linsitinib; first compound 0.1 µM): 0.842
relative viability (Neratinib + Linsitinib; first compound 0.3162 µM): 0.914
relative viability (Neratinib + Linsitinib; first compound 1 µM): 1.04

EKVX
relative viability (Neratinib + Pemetrexed; first compound 0.01 µM): 0.413
relative viability (Neratinib + Pemetrexed; first compound 0.03162 µM): 0.421
relative viability (Neratinib + Pemetrexed; first compound 0.1 µM): 0.288
relative viability (Neratinib + Pemetrexed; first compound 0.3162 µM): 0.232
relative viability (Neratinib + Pemetrexed; first compound 1 µM): 0.167
relative viability (Neratinib + Vorinostat; first compound 0.01 µM): 0.889
relative viability (Neratinib + Vorinostat; first compound 0.03162 µM): 0.801
relative viability (Neratinib + Vorinostat; first compound 0.1 µM): 0.498
relative viability (Neratinib + Vorinostat; first compound 0.3162 µM): 0.276
relative viability (Neratinib + Vorinostat; first compound 1 µM): 0.308
relative viability (Neratinib + Olaparib; first compound 0.01 µM): 0.86
relative viability (Neratinib + Olaparib; first compound 0.1 µM): 0.624
relative viability (Neratinib + Olaparib; first compound 0.3162 µM): 0.341
relative viability (Neratinib + Olaparib; first compound 1 µM): 0.203
relative viability (Neratinib + Linsitinib; first compound 0.01 µM): 1.12
relative viability (Neratinib + Linsitinib; first compound 0.03162 µM): 0.85
relative viability (Neratinib + Linsitinib; first compound 0.1 µM): 0.842
relative viability (Neratinib + Linsitinib; first compound 0.3162 µM): 0.276
relative viability (Neratinib + Linsitinib; first compound 1 µM): 0.141

EMC-BAC-2
relative viability (Neratinib + Pemetrexed; first compound 0.01 µM): 0.473
relative viability (Neratinib + Pemetrexed; first compound 0.03162 µM): 0.495
relative viability (Neratinib + Pemetrexed; first compound 0.1 µM): 0.435
relative viability (Neratinib + Pemetrexed; first compound 0.3162 µM): 0.451
relative viability (Neratinib + Pemetrexed; first compound 1 µM): 0.475
relative viability (Neratinib + Vorinostat; first compound 0.01 µM): 0.898
relative viability (Neratinib + Vorinostat; first compound 0.03162 µM): 0.565
relative viability (Neratinib + Vorinostat; first compound 0.1 µM): 0.447
relative viability (Neratinib + Vorinostat; first compound 0.3162 µM): 0.46
relative viability (Neratinib + Vorinostat; first compound 1 µM): 0.351
relative viability (Neratinib + Olaparib; first compound 0.01 µM): 0.521
relative viability (Neratinib + Olaparib; first compound 0.03162 µM): 0.481
relative viability (Neratinib + Olaparib; first compound 0.1 µM): 0.501
relative viability (Neratinib + Olaparib; first compound 0.3162 µM): 0.528
relative viability (Neratinib + Olaparib; first compound 1 µM): 0.45
relative viability (Neratinib + Linsitinib; first compound 0.01 µM): 0.834
relative viability (Neratinib + Linsitinib; first compound 0.03162 µM): 0.775
relative viability (Neratinib + Linsitinib; first compound 0.1 µM): 0.683
relative viability (Neratinib + Linsitinib; first compound 0.3162 µM): 0.578
relative viability (Neratinib + Linsitinib; first compound 1 µM): 0.435

EPLC-272H
relative viability (Neratinib + Pemetrexed; first compound 0.01 µM): 0.27
relative viability (Neratinib + Pemetrexed; first compound 0.03162 µM): 0.356
relative viability (Neratinib + Pemetrexed; first compound 0.1 µM): 0.262
relative viability (Neratinib + Pemetrexed; first compound 0.3162 µM): 0.281
relative viability (Neratinib + Pemetrexed; first compound 1 µM): 0.233
relative viability (Neratinib + Vorinostat; first compound 0.01 µM): 0.287
relative viability (Neratinib + Vorinostat; first compound 0.03162 µM): 0.498
relative viability (Neratinib + Vorinostat; first compound 0.1 µM): 0.415
relative viability (Neratinib + Vorinostat; first compound 0.3162 µM): 0.332
relative viability (Neratinib + Vorinostat; first compound 1 µM): 0.269
relative viability (Neratinib + Olaparib; first compound 0.01 µM): 0.645
relative viability (Neratinib + Olaparib; first compound 0.03162 µM): 0.643
relative viability (Neratinib + Olaparib; first compound 0.1 µM): 0.558
relative viability (Neratinib + Olaparib; first compound 0.3162 µM): 0.512
relative viability (Neratinib + Olaparib; first compound 1 µM): 0.253
relative viability (Neratinib + Linsitinib; first compound 0.01 µM): 1.19
relative viability (Neratinib + Linsitinib; first compound 0.03162 µM): 1.08
relative viability (Neratinib + Linsitinib; first compound 0.1 µM): 0.999
relative viability (Neratinib + Linsitinib; first compound 0.3162 µM): 0.711
relative viability (Neratinib + Linsitinib; first compound 1 µM): 0.872

H3255
relative viability (Neratinib + Pemetrexed; first compound 0.01 µM): 0.556
relative viability (Neratinib + Pemetrexed; first compound 0.03162 µM): 0.568
relative viability (Neratinib + Pemetrexed; first compound 0.1 µM): 0.469
relative viability (Neratinib + Pemetrexed; first compound 0.3162 µM): 0.332
relative viability (Neratinib + Pemetrexed; first compound 1 µM): 0.226
relative viability (Neratinib + Vorinostat; first compound 0.01 µM): 0.826
relative viability (Neratinib + Vorinostat; first compound 0.03162 µM): 0.826
relative viability (Neratinib + Vorinostat; first compound 0.1 µM): 0.65
relative viability (Neratinib + Vorinostat; first compound 0.3162 µM): 0.509
relative viability (Neratinib + Vorinostat; first compound 1 µM): 0.191
relative viability (Neratinib + Olaparib; first compound 0.01 µM): 0.58
relative viability (Neratinib + Olaparib; first compound 0.03162 µM): 0.571
relative viability (Neratinib + Olaparib; first compound 0.1 µM): 0.463
relative viability (Neratinib + Olaparib; first compound 0.3162 µM): 0.264
relative viability (Neratinib + Olaparib; first compound 1 µM): 0.214
relative viability (Neratinib + Linsitinib; first compound 0.01 µM): 0.963
relative viability (Neratinib + Linsitinib; first compound 0.03162 µM): 0.961
relative viability (Neratinib + Linsitinib; first compound 0.1 µM): 0.725
relative viability (Neratinib + Linsitinib; first compound 0.3162 µM): 0.233
relative viability (Neratinib + Linsitinib; first compound 1 µM): 0.0969

HARA
relative viability (Neratinib + Pemetrexed; first compound 0.01 µM): 0.317
relative viability (Neratinib + Pemetrexed; first compound 0.03162 µM): 0.276
relative viability (Neratinib + Pemetrexed; first compound 0.1 µM): 0.196
relative viability (Neratinib + Pemetrexed; first compound 1 µM): 0.238
relative viability (Neratinib + Vorinostat; first compound 0.01 µM): 0.584
relative viability (Neratinib + Vorinostat; first compound 0.03162 µM): 0.656
relative viability (Neratinib + Vorinostat; first compound 0.3162 µM): 0.577
relative viability (Neratinib + Vorinostat; first compound 1 µM): 0.355
relative viability (Neratinib + Olaparib; first compound 0.01 µM): 0.811
relative viability (Neratinib + Olaparib; first compound 0.1 µM): 0.778
relative viability (Neratinib + Olaparib; first compound 1 µM): 0.48
relative viability (Neratinib + Linsitinib; first compound 0.01 µM): 0.94
relative viability (Neratinib + Linsitinib; first compound 0.03162 µM): 0.91
relative viability (Neratinib + Linsitinib; first compound 0.1 µM): 0.356
relative viability (Neratinib + Linsitinib; first compound 0.3162 µM): 0.338
relative viability (Neratinib + Linsitinib; first compound 1 µM): 0.182

HCC-15
relative viability (Neratinib + Pemetrexed; first compound 0.01 µM): 0.205
relative viability (Neratinib + Pemetrexed; first compound 0.03162 µM): 0.222
relative viability (Neratinib + Pemetrexed; first compound 0.1 µM): 0.233
relative viability (Neratinib + Pemetrexed; first compound 0.3162 µM): 0.227
relative viability (Neratinib + Pemetrexed; first compound 1 µM): 0.205
relative viability (Neratinib + Vorinostat; first compound 0.01 µM): 0.954
relative viability (Neratinib + Vorinostat; first compound 0.03162 µM): 0.85
relative viability (Neratinib + Vorinostat; first compound 0.1 µM): 0.811
relative viability (Neratinib + Vorinostat; first compound 0.3162 µM): 0.724
relative viability (Neratinib + Vorinostat; first compound 1 µM): 0.672
relative viability (Neratinib + Olaparib; first compound 0.01 µM): 0.697
relative viability (Neratinib + Olaparib; first compound 0.03162 µM): 0.819
relative viability (Neratinib + Olaparib; first compound 0.1 µM): 0.673
relative viability (Neratinib + Olaparib; first compound 0.3162 µM): 0.667
relative viability (Neratinib + Olaparib; first compound 1 µM): 0.659
relative viability (Neratinib + Linsitinib; first compound 0.01 µM): 0.894
relative viability (Neratinib + Linsitinib; first compound 0.03162 µM): 0.913
relative viability (Neratinib + Linsitinib; first compound 0.1 µM): 0.776
relative viability (Neratinib + Linsitinib; first compound 0.3162 µM): 0.81
relative viability (Neratinib + Linsitinib; first compound 1 µM): 0.551

HCC-44
relative viability (Neratinib + Pemetrexed; first compound 0.01 µM): 0.63
relative viability (Neratinib + Pemetrexed; first compound 0.03162 µM): 0.686
relative viability (Neratinib + Pemetrexed; first compound 0.1 µM): 0.635
relative viability (Neratinib + Pemetrexed; first compound 0.3162 µM): 0.648
relative viability (Neratinib + Pemetrexed; first compound 1 µM): 0.671
relative viability (Neratinib + Vorinostat; first compound 0.01 µM): 1.11
relative viability (Neratinib + Vorinostat; first compound 0.03162 µM): 1.09
relative viability (Neratinib + Vorinostat; first compound 0.1 µM): 1.12
relative viability (Neratinib + Vorinostat; first compound 0.3162 µM): 1.1
relative viability (Neratinib + Vorinostat; first compound 1 µM): 1.09
relative viability (Neratinib + Olaparib; first compound 0.01 µM): 1.04
relative viability (Neratinib + Olaparib; first compound 0.03162 µM): 1.03
relative viability (Neratinib + Olaparib; first compound 0.1 µM): 0.899
relative viability (Neratinib + Olaparib; first compound 0.3162 µM): 0.94
relative viability (Neratinib + Olaparib; first compound 1 µM): 0.979
relative viability (Neratinib + Linsitinib; first compound 0.01 µM): 0.724
relative viability (Neratinib + Linsitinib; first compound 0.03162 µM): 0.697
relative viability (Neratinib + Linsitinib; first compound 0.1 µM): 0.641
relative viability (Neratinib + Linsitinib; first compound 1 µM): 0.691

HCC-78
relative viability (Neratinib + Pemetrexed; first compound 0.01 µM): 0.889
relative viability (Neratinib + Pemetrexed; first compound 0.03162 µM): 0.925
relative viability (Neratinib + Pemetrexed; first compound 0.1 µM): 0.883
relative viability (Neratinib + Pemetrexed; first compound 0.3162 µM): 0.898
relative viability (Neratinib + Pemetrexed; first compound 1 µM): 0.885
relative viability (Neratinib + Vorinostat; first compound 0.01 µM): 0.547
relative viability (Neratinib + Vorinostat; first compound 0.03162 µM): 0.408
relative viability (Neratinib + Vorinostat; first compound 0.1 µM): 0.352
relative viability (Neratinib + Vorinostat; first compound 0.3162 µM): 0.362
relative viability (Neratinib + Vorinostat; first compound 1 µM): 0.28
relative viability (Neratinib + Olaparib; first compound 0.01 µM): 0.996
relative viability (Neratinib + Olaparib; first compound 0.03162 µM): 0.87
relative viability (Neratinib + Olaparib; first compound 0.1 µM): 0.817
relative viability (Neratinib + Olaparib; first compound 0.3162 µM): 0.798
relative viability (Neratinib + Olaparib; first compound 1 µM): 0.396
relative viability (Neratinib + Linsitinib; first compound 0.01 µM): 0.543
relative viability (Neratinib + Linsitinib; first compound 0.03162 µM): 0.665
relative viability (Neratinib + Linsitinib; first compound 0.1 µM): 0.483
relative viability (Neratinib + Linsitinib; first compound 0.3162 µM): 0.338
relative viability (Neratinib + Linsitinib; first compound 1 µM): 0.241
